The results in this text go back to ChEMBL document CHEMBL4433266, “Design, synthesis and antimycobacterial activity of benzoxazinone derivatives and open-ring analogues: Preliminary data and computational analysis” (Bioorg Med Chem Lett, 2019).

Structures are written as SMILES. ≈ marks a conversion by molar mass, not a printed value.

Common to all, as to assay type: functional
For assay [1], the system named is Mycobacterium tuberculosis. Briefly: Antimycobacterial activity against Pyrazinamide-resistant Mycobacterium tuberculosis ATCC 35828 assessed as inhibition of bacterial cell growth incubated for 7 days by resazurin microtiter assay. The note with it: ATCC 35828, 168 h. (Alamar Blue is a resazurin reagent that responds to reducing activity.)
Assay [2] relates to Mycobacterium tuberculosis. Briefly: Antimycobacterial activity against Isoniazid-resistant Mycobacterium tuberculosis ATCC 35822 assessed as inhibition of bacterial cell growth incubated for 7 days by resazurin microtiter assay. The following applies: ATCC 35822, 168 h.
The subject of assay [3] is Mycobacterium tuberculosis. Briefly: Antimycobacterial activity against Rifampicin-resistant Mycobacterium tuberculosis ATCC 35838 assessed as inhibition of bacterial cell growth incubated for 7 days by resazurin microtiter assay. The note with it: ATCC 35838, 168 h.
The subject of assay [4] is Mycobacterium tuberculosis. The experiment in a line: Antimycobacterial activity against Streptomycin-resistant Mycobacterium tuberculosis ATCC 35820 assessed as inhibition of bacterial cell growth incubated for 7 days by resazurin microtiter assay. The note with it: ATCC 35820, 168 h.

For the compound `COC(=O)/C=C1\Nc2ccccc2OC1=O`, the minimum inhibitory concentration (MIC) (commonly the least concentration at which growth counts as inhibited) in assay [1] is 4.5 µM (≈ 0.986 µg/mL); in assay [2], > 146 µM; in assay [3], 9.1 µM (≈ 1.99 µg/mL); in assay [4], 4.5 µM (≈ 0.986 µg/mL).

In the case of `COC(=O)/C=C1\Nc2cc(Cl)ccc2OC1=O`, the minimum inhibitory concentration (MIC) is 31 µM (≈ 7.86 µg/mL) in assay [1], > 126 µM in assay [2], 63 µM (≈ 16 µg/mL) in assay [3] and 63 µM (≈ 16 µg/mL) in assay [4].

On to `COC(=O)/C=C1\Nc2ccc(Cl)cc2OC1=O`, for which the MIC in assay [1] is 3.9 µM (≈ 0.989 µg/mL); in assay [2], > 126 µM; in assay [3] it was 3.9 µM (≈ 0.989 µg/mL); in assay [4], 3.9 µM (≈ 0.989 µg/mL).

With `O=C1Oc2ccccc2N/C1=C\C(=O)c1c[nH]c2ccccc12`, the MIC in assay [1] was 3.3 µM (≈ 1 µg/mL); in assay [2] it was > 105 µM; in assay [3], 3.3 µM (≈ 1 µg/mL); in assay [4], 3.3 µM (≈ 1 µg/mL).

`O=C1Oc2ccccc2N/C1=C\C(=O)c1cccs1`: the MIC is 14.7 µM (≈ 3.99 µg/mL) in assay [1], 118 µM (≈ 32 µg/mL) in assay [2], 14.7 µM (≈ 3.99 µg/mL) in assay [3] and 14.7 µM (≈ 3.99 µg/mL) in assay [4].

In the case of `O=C1Oc2ccccc2N/C1=C\C(=O)N1CCOCC1`, the MIC in assay [1] was 3.6 µM (≈ 0.987 µg/mL); in assay [2] it was > 117 µM; in assay [3], 7.3 µM (≈ 2 µg/mL); in assay [4], 7.3 µM (≈ 2 µg/mL).

In the case of `O=C(NNC(=O)c1ccncc1)C(=O)Nc1ccccc1O`, the MIC in assay [1] is 6.7 µM (≈ 2.01 µg/mL); in assay [2] it was > 106 µM; in assay [3], 3.3 µM (≈ 0.991 µg/mL); in assay [4] it was 26.7 µM (≈ 8.02 µg/mL).

Take `O=C(NNC(=O)c1ccncc1)C(=O)Nc1ccc(Cl)cc1O`: the MIC in assay [1] is 12 µM (≈ 4.02 µg/mL); in assay [2], > 96 µM; in assay [3], 12 µM (≈ 4.02 µg/mL); in assay [4] it was 24 µM (≈ 8.03 µg/mL).

With `O=C(NNC(=O)c1ccncc1)C(=O)Nc1cc(Cl)ccc1O`, the MIC in assay [1] was 12 µM (≈ 4.02 µg/mL); in assay [2] it was > 96 µM; in assay [3], 12 µM (≈ 4.02 µg/mL); in assay [4] it was 24 µM (≈ 8.03 µg/mL).

As to `NNC(=O)c1ccncc1` [ISONIAZID], the MIC in assay [1] is 1.8 µM (≈ 0.247 µg/mL); in assay [2], > 233 µM; in assay [3], 1.8 µM (≈ 0.247 µg/mL); in assay [4], 1.8 µM (≈ 0.247 µg/mL).
